Biological target: T1, RXRα (Homo sapiens, UniProt P19793)
T1 construct: gene RXRA; RXRα-LBD (N-terminal His-tagged)
T1 sequence (P19793 223-462 limits assumed): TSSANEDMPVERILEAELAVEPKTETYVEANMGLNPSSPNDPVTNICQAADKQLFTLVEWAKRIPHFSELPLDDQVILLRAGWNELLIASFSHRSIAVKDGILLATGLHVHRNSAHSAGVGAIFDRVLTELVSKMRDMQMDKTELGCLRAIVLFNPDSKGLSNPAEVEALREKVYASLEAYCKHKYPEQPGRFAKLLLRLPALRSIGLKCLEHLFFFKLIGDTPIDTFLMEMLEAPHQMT
Experiment: fluorescence quenching with purified RXRα-LBD
Assay type: binding

CC(=O)O[C@H]1C[C@H]2[C@H]3[C@H]([C@@H](O)C[C@]2(C)[C@H]1[C@H](C)C=C[C@H](C)C(C)C)[C@@]1(C)CC[C@H](O)CC1=C[C@@H]3O [compound 2, 16β-acetoxy-3β,7β,11β-trihydroxyergost-5,22-diene]
Kd: 13.8 µM

CC(=O)O[C@H]1C[C@H]2[C@@H]3[C@@H](O)[C@@H](O)[C@H]4C[C@@H](O)CC[C@]4(C)[C@H]3[C@@H](O)C[C@]2(C)[C@H]1[C@H](C)/C=C/[C@H](C)C(C)C [compound 6, penicisteroid A]
Kd: 12.9 µM

— paper PMC6472029, “Steroids from the Deep-Sea-Derived Fungus Penicillium granulatum MCCC 3A00475 Induced Apoptosis via Retinoid X Receptor (RXR)-α Pathway” (Marine Drugs, 2019)
